Experiments:
[1] = Example 3: pharmacokinetic drug-drug interaction of tipranavir 1200 mg BID and delavirdine 400 mg TID, plasma levels by HPLC
Procedure: Baseline pharmacokinetic data for each drug were obtained under pharmacokinetic steady-state conditions following 7 days of dosing. Each drug was then co-administered for 10 days, at which time the pharmacokinetics of each was re-evaluated and compared with baseline data. […] All subjects were Caucasian. […] Pharmacokinetic analyses were based on results obtained in these subjects.
Detection was by UV absorbance at 260 nm.
Plasma samples were assayed for delavirdine concentrations using a validated, sensitive and specific isocratic high performance liquid chromatographic (HPLC) method: one for the upper concentration range, and one for the lower concentration range. […] The supernatant was mixed with buffer and directly injected. Chromatographic separation was achieved using a Brownlee cyano guard column and an analytical column, DuPont Zorbax® SB CN.
Treatment effects on pharmacokinetic parameters were assessed using Wilcoxon's Signed Rank Test.

[2] = Table 1: tipranavir drug-drug interaction potential and routes of elimination of antiretrovirals; conditions: drug-drug interaction with tipranavir
[3] = Study 1: pharmacokinetic drug-drug interaction of tipranavir 1350 mg BID and ritonavir 500 mg BID, plasma levels by HPLC; format: in vivo, human; conditions: for CLPO / Cmin / Css: median (range), n=10
Description: Twelve subjects were Caucasian and two were of African descent. Ten subjects completed all aspects of the study. Pharmacokinetic analyses were based on the results obtained in these subjects. […] Detection was by UV absorbance at 260 nm. […] Ritonavir and the internal standard (IS) were extracted from human plasma by liquid-liquid extraction with an ethyl acetate mixture.

[4] = Study 2: pharmacokinetic drug-drug interaction of tipranavir 600 or 900 mg BID and ritonavir 100-500 mg BID, plasma levels by HPLC; format: in vivo, human; conditions: for CLPO / Cmin / Css / AUC / Cmax / Tmax: median (range); for half-life / AUC / Cmax / Tmax: both sexes, human, plasma, oral; for half-life: harmonic mean (range), read-out: t½ (converted)
Procedure: Both groups received their assigned dose of tipranavir continuously throughout the study period. […] The pharmacokinetics of tipranavir when coadministered with ritonavir were evaluated and compared with baseline data, while the ritonavir data were compared to historical data. The study was conducted in 19 healthy volunteers (16 males and 3 females) with a mean age of 30 years (range, 19-52 years), height of 177.1 cm (range, 162.6-190.5 cm), and weight of 76.7 kg (range, 57.3-95.0 kg). Eighteen subjects were Caucasian […]. […] Pharmacokinetic analyses were based on those subjects completing the baseline evaluation and at least one period of concomitant drug administration. […] Detection was by UV absorbance at 260 nm. […] Ritonavir and the internal standard (IS) were extracted from human plasma by liquid-liquid extraction with an ethyl acetate mixture.

[5] = Example 4: pharmacokinetic drug-drug interaction of tipranavir SEDDS 1250 mg BID and ritonavir oral solution 200 mg BID; format: in vivo, human; conditions: for CLPO / Cmin / Css: median (range)
[6] = delavirdine 400 mg TID + tipranavir 1200 mg BID vs delavirdine alone
[7] = Tipranavir 1350 mg BID + Ritonavir 500 mg BID
[8] = Tipranavir 1350 mg BID alone, steady state
[9] = tipranavir 1350 mg BID + ritonavir 500 mg BID vs tipranavir alone
[10] = Tipranavir 600 mg BID + RTV 100 mg BID, n=7
[11] = Tipranavir 600 mg BID + RTV 500 mg BID, n=7
[12] = Tipranavir 600 mg BID alone, n=7
[13] = Tipranavir 900 mg BID + RTV 100 mg BID, n=6
[14] = Tipranavir 900 mg BID + RTV 500 mg BID, n=6
[15] = Tipranavir 900 mg BID alone, n=6
[16] = 600 mg, Tipranavir 600 mg BID alone, n=7
[17] = 900 mg, Tipranavir 900 mg BID alone, n=6
[18] = tipranavir 600 mg BID + ritonavir 100 mg BID vs alone
[19] = tipranavir 600 mg BID + ritonavir 500 mg BID vs alone
[20] = tipranavir 900 mg BID + ritonavir 100 mg BID vs alone
[21] = tipranavir 900 mg BID + ritonavir 500 mg BID vs alone
[22] = Tipranavir SEDDS SEC 1250mg BID + Ritonavir Oral Solution 200mg BID, N=21
[23] = Tipranavir SEDDS SEC 1250mg BID alone, N=22
[24] = both sexes, human, plasma, oral, 1250 mg

## CC(C)Nc1cccnc1N1CCN(C(=O)c2cc3cc(NS(C)(=O)=O)ccc3[nH]2)CC1 [Delavirdine]
[1]; coadministration with tipranavir
  decrease of delavirdine AUC by tipranavir: > 95%
[1]; [6]
  median delavirdine AUC value, fold lower: more than 20 fold
  median trough delavirdine concentration, fold lower: more than 100 fold
[2]
  Potential for Clinically Significant Interaction: High (and unfavorable)

## CCC[C@@]1(CCc2ccccc2)CC(O)=C([C@H](CC)c2cccc(NS(=O)(=O)c3ccc(C(F)(F)F)cn3)c2)C(=O)O1 (relative stereo) [Tipranavir, [R-(R*,R*)]-N-[3-[1-[5,6-Dihydro-4-hydroxy-2-oxo-6-(2-phenylethyl)-6-propyl-2H-pyran-3-yl]propyl]phenyl]-5-(trifluoromethyl)-2-pyridinesulfonamide]
[3]; [7]
  CLPO: 1.9 (1.2-3.8) L/h
  Cmin: 42 (12-84) µM
  Css: 100 (49-161) µM
[3]; Tipranavir 1350 mg BID + Ritonavir 500 mg BID, listed as tipranavir
  Cmin: 42 µM
[3]; [8]
  CLPO: 31 (11-100) L/h
  Cmin: 0.78 (0.34-1.42) µM
  Css: 6.1 (1.9-16.8) µM
[3]; [9]
  effect on tipranavir elimination half-life (t½): not accompanied by a prolongation of the elimination half-life
  increase of mean steady-state plasma tipranavir concentrations (Css): 12 fold
  increase of median tipranavir Cmax value in the presence of ritonavir: approximately 5.6 fold
  increase of median tipranavir Cmin values: 45 fold
[4]; [10]
  CLPO: 3.35 (2.44-6.07) L/h
  Cmin: 3.14 (1.61-12.8) µM
  Css: 24.8 (13.7-34.0) µM
  half-life: 2.3 h
  AUC: 297 µM·h
  Cmax: 56.8 µM
  Tmax: 2 h
[4]; [11]
  CLPO: 2.23 (1.02-4.79) L/h
  Cmin: 14.3 (4.70-32.5) µM
  Css: 37.2 (17.3-81.0) µM
  half-life: 3.7 h
  AUC: 446 µM·h
  Cmax: 78.6 µM
  Tmax: 2 h
[4]; Tipranavir 600 mg BID + RTV 500 mg BID, n=7, listed as tipranavir
  Cmin: 14.3 µM
[4]; [12]
  CLPO: 31.3 (17.3-88.8) L/h
  Cmin: 0.341 (0.165-0.929) µM
  Css: 2.70 (0.94-4.79) µM
[4]; [13]
  CLPO: 4.10 (2.45-7.86) L/h
  Cmin: 3.62 (1.98-6.95) µM
  Css: 30.6 (15.8-50.8) µM
  half-life: 1.9 h
  AUC: 368 µM·h
  Cmax: 68.9 µM
  Tmax: 3 h
[4]; [14]
  CLPO: 1.64 (1.00-2.82) L/h
  Cmin: 22.7 (9.91-63.2) µM
  Css: 76.1 (44.1-124.8) µM
  half-life: 3.5 h
  AUC: 913 µM·h
  Cmax: 148 µM
  Tmax: 2 h
[4]; [15]
  CLPO: 32.4 (20.8-53.1) L/h
  Cmin: 0.499 (0.160-1.150) µM
  Css: 3.88 (2.34-5.98) µM
[4]; [16]
  half-life: 3.6 h
  AUC: 32.5 µM·h
  Cmax: 11.3 µM
  Tmax: 2 h
[4]; [17]
  half-life: 4.2 h
  AUC: 46.5 µM·h
  Cmax: 14.6 µM
  Tmax: 2 h
[4]; extrapolated to a dose of ritonavir 30 mg BID
  predicted tipranavir concentration (target minimal therapeutic threshold): 1 µM
[4]; in combination with ritonavir 100 mg BID
  lowest median trough tipranavir concentration: exceeded 3 µM
[4]; ritonavir 100 mg BID vs same dose of tipranavir alone
  increase of plasma tipranavir concentrations: ~10 fold
[4]; [18]
  increase of median AUC values of tipranavir: approximately 9 fold
  increase of median Cmax values: 5 fold
  increase of median trough tipranavir concentrations: approximately 9 fold
[4]; [19]
  increase of median AUC values of tipranavir: approximately 14 fold
  increase of median Cmax values: 7 fold
  increase of median trough tipranavir concentrations: approximately 40 fold
[4]; tipranavir 600 mg BID with concomitant ritonavir
  effect on apparent terminal half-life of tipranavir: no prolongation of the apparent terminal half-life
[4]; tipranavir 600 mg with ritonavir 500 mg
  trough concentration: exceeding 3 µM
[4]; [20]
  increase of median AUC values of tipranavir: approximately 8 fold
  increase of median Cmax values: 5 fold
  increase of median trough tipranavir concentrations: approximately 7 fold
[4]; [21]
  increase of median AUC values of tipranavir: approximately 20 fold
  increase of median Cmax values: 10 fold
  increase of median trough tipranavir concentrations: approximately 45 fold
[4]; tipranavir 900 mg BID with concomitant ritonavir
  effect on apparent terminal half-life of tipranavir: No prolongation of the apparent terminal half-life
[1]; tipranavir 1200 mg BID + delavirdine 400 mg TID, steady state
  effect of delavirdine on the pharmacokinetics of tipranavir: no effect
[5]; [22]
  CLPO: 1.19 (0.47-2.29) L/h
  Cmin: 62.1 (11.2-261) µM
  Css: 145 (76-371) µM
[5]; [23]
  CLPO: 12.7 (6.1-23.7) L/h
  Cmin: 0.82(0.30-2.20) µM
  Css: 13.6 (7.3-28.1) µM
[5]; [24]
  AUC: 163 µM·h
  Cmax: 56 µM
  Tmax: 2 h
[5]; both sexes, human, plasma, oral, 1250 mg, read-out: t½ (converted)
  half-life: 5.4 h
[5]; ritonavir 200 mg vs same dose (1250 mg BID) of tipranavir alone
  increase of tipranavir steady-state concentrations: more than 10 fold
[5]; tipranavir 1250 mg BID + ritonavir 200 mg BID
  effect on apparent terminal half-life of tipranavir: not significantly affected
[5]; tipranavir 1250 mg BID + ritonavir oral solution 200 mg BID vs tipranavir alone
  increase of median Cmax values: approximately 5 fold
